Assay results taken from patent US4076659A, “L-Val^10 -somatostatin and intermediates thereto” (Eli Lilly and Company, priority 1976, dated 1978).
Bridge positions count the residues as written; N and C are the ends. Peptide text beside a SMILES is read from it.

Test system: release of growth hormone
Assay: Inhibition of growth hormone release in sodium pentobarbitol-stimulated rats (modified Brazeau method)
Type: in vivo, mature male Spraque-Dawley rats
Settings: subcutaneously, sodium pentobarbitol-stimulated GH secretion, vs saline control group
Description: The product from Example 4 was tested for its activity in inhibiting the release of growth hormone. The procedure which was employed is carried out using mature male Spraque-Dawley rats (Laboratory Supply Company, Indianapolis, Indiana). The test is a modification of the method of P. Brazeau, W. Vale, and R. Guilleman, Endocrinology, 94 184 (1974). In this assay, five groups of eight rats each were employed. First, sodium pentobarbitol was administered to all 40 rats to stimulate growth hormone secretion. One of the groups of eight rats is the control group and received only saline. Two of the groups received somatostatin, one at 2 μg./rat, subcutaneously, and the other at 50 μg./rat, subcutaneously. The other two groups received L-Val^10 -somatostatin, one at 2 μg./rat, subcutaneously and the other at 50 μg./rat, subcutaneously. The degree of inhibition of serum growth hormone concentration then was determined with respect to the control group, and the relative activities of L-Val^10 -somatostatin and somatostatin itself were compared.

SMILES: CC(C)[C@@H]1NC(=O)[C@H](CCCCN)NC(=O)[C@H](Cc2c[nH]c3ccccc23)NC(=O)[C@H](Cc2ccccc2)NC(=O)[C@H](Cc2ccccc2)NC(=O)[C@H](CC(N)=O)NC(=O)[C@H](CCCCN)NC(=O)[C@@H](NC(=O)CNC(=O)[C@H](C)N)CSSC[C@@H](C(=O)O)NC(=O)[C@H](CO)NC(=O)[C@H]([C@@H](C)O)NC(=O)[C@H](Cc2ccccc2)NC1=O [L-Val^10 -somatostatin] (H-AGCKNFFWKVFTSC-OH; disulfide 3-14)
- diminished serum growth hormone concentration over control (2 μg./rat): 49%
- diminished serum growth hormone concentration over control (inhibition) (50 μg./rat): 72%
